US8378104B2 (OSI Pharmaceuticals, LLC, priority 2010, dated 2013)
Structures can show the parent of a compound that is named as a salt.

Target: T1, TAK1-TAB1 fusion protein (Homo sapiens, UniProt O43318)
T1 construct: purchased Carna
T1 sequence (O43318 with tags, fused parts or gaps limits assumed): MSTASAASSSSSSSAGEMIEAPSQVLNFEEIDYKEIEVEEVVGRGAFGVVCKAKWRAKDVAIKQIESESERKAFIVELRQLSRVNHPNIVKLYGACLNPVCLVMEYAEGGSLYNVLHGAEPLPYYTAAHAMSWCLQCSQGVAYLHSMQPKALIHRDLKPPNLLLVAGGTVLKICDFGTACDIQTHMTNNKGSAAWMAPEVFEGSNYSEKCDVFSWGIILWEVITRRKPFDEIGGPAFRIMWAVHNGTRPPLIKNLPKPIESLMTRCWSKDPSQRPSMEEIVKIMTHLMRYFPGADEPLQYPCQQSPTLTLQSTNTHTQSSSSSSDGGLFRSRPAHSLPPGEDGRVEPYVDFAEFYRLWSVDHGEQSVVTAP
Experiment: TAK1 biochemical assay (AlphaScreen, GST-MAP2K7 substrate)
Conditions: TAK1-TAB1 fusion protein, GST-MAP2K7 substrate; read-out: mean TAK1 IC50 (Col. A)

COc1cccc(COc2cccc(-c3cc4c(-c5cnn(C6CCN(C(C)=O)CC6)c5)cnc(N)c4o3)c2)c1 [Example 207, 1-{4-[4-(7-amino-2-{3-[(3-methoxybenzyl)oxy]phenyl}furo[2,3-c]pyridin-4-yl)-1H-pyrazol-1-yl]piperidin-1-yl}ethanone]
IC50: > 10 µM

CC(=O)N1CCC(n2cc(-c3cnc(N)c4oc(-c5cccc(OCCC(C)C)c5)cc34)cn2)CC1 [Example 208, 1-[4-(4-{7-amino-2-[3-(3-methylbutoxy)phenyl]furo[2,3-c]pyridin-4-yl}-1H-pyrazol-1-yl)piperidin-1-yl]ethanone]
IC50: > 10 µM

CC(=O)N1CCC(n2cc(-c3cnc(N)c4oc(-c5cccc(OCC6CCCCC6)c5)cc34)cn2)CC1 [Example 209, 1-[4-(4-{7-amino-2-[3-(cyclohexylmethoxy)phenyl]furo[2,3-c]pyridin-4-yl}-1H-pyrazol-1-yl)piperidin-1-yl]ethanone]
IC50: > 10 µM

CCC(C)Oc1cccc(-c2cc3c(-c4cnn(C5CCN(C(C)=O)CC5)c4)cnc(N)c3o2)c1 (centres unmarked) [Example 210]
IC50: > 10 µM

CCOC(=O)COc1cccc(-c2cc3c(-c4cnn(C5CCN(C(C)=O)CC5)c4)cnc(N)c3o2)c1 [Example 211, ethyl (3-{4-[1-(1-acetylpiperidin-4-yl)-1H-pyrazol-4-yl]-7-aminofuro[2,3-c]pyridin-2-yl}phenoxy)acetate]
IC50: > 10 µM

COc1ccccc1COc1cccc(-c2cc3c(-c4cnn(C5CCN(C(C)=O)CC5)c4)cnc(N)c3o2)c1 [Example 212, 1-{4-[4-(7-amino-2-{3-[(2-methoxybenzyl)oxy]phenyl}furo[2,3-c]pyridin-4-yl)-1H-pyrazol-1-yl]piperidin-1-yl}ethanone]
IC50: > 10 µM

CC(=O)N1CCC(n2cc(-c3cnc(N)c4oc(-c5cccc6c5cnn6C)cc34)cn2)CC1 [Example 214, 1-(4-{4-[7-amino-2-(1-methyl-1H-indazol-4-yl)furo[2,3-c]pyridin-4-yl]-1H-pyrazol-1-yl}piperidin-1-yl)ethanone]
IC50: 0.1 to 1 µM

CC(=O)N1CCC(n2cc(-c3cnc(N)c4oc(-c5coc6ccccc56)cc34)cn2)CC1 [Example 220, 1-(4-{4-[7-amino-2-(1-benzofuran-3-yl)furo[2,3-c]pyridin-4-yl]-1H-pyrazol-1-yl}piperidin-1-yl)ethanone bis(trifluoroacetate)]
IC50: 1 to 10 µM

Nc1ncc(-c2cnn([C@H]3CC[C@H](O)CC3)c2)c2cc(-c3cccc4ccsc34)oc12 [Example 232, trans-4-{4-[7-amino-2-(1-benzothiophen-7-yl)furo[2,3-c]pyridin-4-yl]-1H-pyrazol-1-yl}cyclohexanol diformate salt]
IC50: 0.1 to 1 µM

Nc1ncc(-c2cnn([C@H]3CC[C@H](O)CC3)c2)c2cc(-c3cccc4ncccc34)oc12 [Example 235, trans-4-{4-[7-amino-2-(quinolin-5-yl)furo[2,3-c]pyridin-4-yl]-1H-pyrazol-1-yl}cyclohexanol]
IC50: 1 to 10 µM

CC(=O)N1CCC(n2cc(-c3cnc(N)c4oc(-c5csc6cn(C)c(=O)cc56)cc34)cn2)CC1 [Example 244, 3-{4-[1-(1-acetylpiperidin-4-yl)-1H-pyrazol-4-yl]-7-aminofuro[2,3-c]pyridin-2-yl}-6-methylthieno[2,3-c]pyridin-5(6H)-one trifluoroacetate]
IC50: 1 to 10 µM

CCOc1cc2c(-c3cc4c(-c5cnn(C6CCN(C(C)=O)CC6)c5)cnc(N)c4o3)csc2cn1 [Example 245, 1-(4-{4-[7-amino-2-(5-ethoxythieno[2,3-c]pyridin-3-yl)furo[2,3-c]pyridin-4-yl]-1H-pyrazol-1-yl}piperidin-1-yl)ethanone bis(trifluoroacetate)]
IC50: 0.1 to 1 µM

COc1cc2c(-c3cc4c(-c5cnn([C@H]6CC[C@H](O)CC6)c5)cnc(N)c4o3)csc2cn1 [Example 250, trans-4-{4-[7-amino-2-(5-methoxythieno[2,3-c]pyridin-3-yl)furo[2,3-c]pyridin-4-yl]-1H-pyrazol-1-yl}cyclohexanol bis(trifluoroacetate)]
IC50: 1 to 10 µM

CC(=O)N1CCC(n2cc(-c3cnc(N)c4oc(-c5csc6cncc(Cl)c56)cc34)cn2)CC1 [Example 255]
IC50: 1 to 10 µM

CC(=O)N1CCC(n2cc(-c3cnc(N)c4oc(-c5csc6c(=O)[nH]ccc56)cc34)cn2)CC1 [Example 257, 3-{4-[1-(1-acetylpiperidin-4-yl)-1H-pyrazol-4-yl]-7-aminofuro[2,3-c]pyridin-2-yl}thieno[2,3-c]pyridin-7(6H)-one trifluoroacetic Acid Salt]
IC50: 1 to 10 µM

CC(=O)N1CCC(n2cc(-c3cnc(N)c4oc(-c5csc6cc(=O)n(C)cc56)cc34)cn2)CC1 [Example 258, 3-{4-[1-(1-acetylpiperidin-4-yl)-1H-pyrazol-4-yl]-7-aminofuro[2,3-c]pyridin-2-yl}-5-methylthieno[3,2-c]pyridin-6(5H)-one trifluoroacetic Acid Salt]
IC50: 1 to 10 µM

Cn1cc2c(-c3cc4c(-c5cnn([C@H]6CC[C@H](O)CC6)c5)cnc(N)c4o3)csc2cc1=O [Example 259, 3-{7-amino-4-[1-(trans-4-hydroxycyclohexyl)-1H-pyrazol-4-yl]furo[2,3-c]pyridin-2-yl}-5-methylthieno[3,2-c]pyridin-6(5H)-one]
IC50: > 10 µM

CC(=O)N1CCC(n2cc(-c3cnc(N)c4oc(-c5c(-c6ccccc6)sc6cnccc56)cc34)cn2)CC1 [Example 263, 1-(4-{4-[7-amino-2-(2-phenylthieno[2,3-c]pyridin-3-yl)furo[2,3-c]pyridin-4-yl]-1H-pyrazol-1-yl}piperidin-1-yl)ethanone trifluoroacetate]
IC50: 0.1 to 1 µM

CC(=O)N1CCC(n2cc(-c3cnc(N)c4oc(-c5c(C#CC(C)(C)O)sc6cnccc56)cc34)cn2)CC1 [Example 265, 1-[4-(4-{7-amino-2-[2-(3-hydroxy-3-methylbut-1-yn-1-yl)thieno[2,3-c]pyridin-3-yl]furo[2,3-c]pyridin-4-yl}-1H-pyrazol-1-yl)piperidin-1-yl]ethanone trifluoroacetate]
IC50: 0.1 to 1 µM

Nc1ncc(-c2cnn([C@H]3CC[C@H](O)CC3)c2)c2cc(-c3c(-c4ccccc4)sc4cnccc34)oc12 [Example 269, trans-4-{4-[7-amino-2-(2-phenylthieno[2,3-c]pyridin-3-yl)furo[2,3-c]pyridin-4-yl]-1H-pyrazol-1-yl}cyclohexanol trifluoroacetate]
IC50: 1 to 10 µM

CC(=O)N1CCC(n2cc(-c3cnc(N)c4oc(-c5cnc6cnccn56)cc34)cn2)CC1 [Example 274, 1-(4-{4-[7-amino-2-(imidazol[1,2-a]pyrazin-3-yl)furo[2,3-c]pyridin-4-yl]-1H-pyrazol-1-yl}piperidin-1-yl)ethanone trifluoroacetic acid salt]
IC50: 1 to 10 µM

CC(=O)N1CCC(n2cc(-c3cnc(N(C)C)c4oc(-c5csc6cnccc56)cc34)cn2)CC1 [Example 276, 1-(4-{4-[7-(dimethylamino)-2-(thieno[2,3-c]pyridin-3-yl)furo[2,3-c]pyridin-4-yl]-1H-pyrazol-1-yl}piperidin-1-yl)ethanone trifluoroacetic acid salt]
IC50: 1 to 10 µM

CCNc1ncc(-c2cnn(C3CCN(C(C)=O)CC3)c2)c2cc(-c3csc4cnccc34)oc12 [Example 277, 1-(4-{4-[7-(ethylamino)-2-(thieno[2,3-c]pyridin-3-yl)furo[2,3-c]pyridin-4-yl]-1H-pyrazol-1-yl}piperidin-1-yl)ethanone trifluoroacetic acid salt]
IC50: 1 to 10 µM
